We go through 27 compounds from US7829572B2 (Pfizer Inc, priority 2006, dated 2010).

Some results are limits rather than exact numbers.

The target in this assay is T1, calcium receptor (CasR) (Homo sapiens, UniProt P41180).
T1 construct: expressed in transfected cells; host or cells: HEK 293
T1 sequence (P41180 20-1078): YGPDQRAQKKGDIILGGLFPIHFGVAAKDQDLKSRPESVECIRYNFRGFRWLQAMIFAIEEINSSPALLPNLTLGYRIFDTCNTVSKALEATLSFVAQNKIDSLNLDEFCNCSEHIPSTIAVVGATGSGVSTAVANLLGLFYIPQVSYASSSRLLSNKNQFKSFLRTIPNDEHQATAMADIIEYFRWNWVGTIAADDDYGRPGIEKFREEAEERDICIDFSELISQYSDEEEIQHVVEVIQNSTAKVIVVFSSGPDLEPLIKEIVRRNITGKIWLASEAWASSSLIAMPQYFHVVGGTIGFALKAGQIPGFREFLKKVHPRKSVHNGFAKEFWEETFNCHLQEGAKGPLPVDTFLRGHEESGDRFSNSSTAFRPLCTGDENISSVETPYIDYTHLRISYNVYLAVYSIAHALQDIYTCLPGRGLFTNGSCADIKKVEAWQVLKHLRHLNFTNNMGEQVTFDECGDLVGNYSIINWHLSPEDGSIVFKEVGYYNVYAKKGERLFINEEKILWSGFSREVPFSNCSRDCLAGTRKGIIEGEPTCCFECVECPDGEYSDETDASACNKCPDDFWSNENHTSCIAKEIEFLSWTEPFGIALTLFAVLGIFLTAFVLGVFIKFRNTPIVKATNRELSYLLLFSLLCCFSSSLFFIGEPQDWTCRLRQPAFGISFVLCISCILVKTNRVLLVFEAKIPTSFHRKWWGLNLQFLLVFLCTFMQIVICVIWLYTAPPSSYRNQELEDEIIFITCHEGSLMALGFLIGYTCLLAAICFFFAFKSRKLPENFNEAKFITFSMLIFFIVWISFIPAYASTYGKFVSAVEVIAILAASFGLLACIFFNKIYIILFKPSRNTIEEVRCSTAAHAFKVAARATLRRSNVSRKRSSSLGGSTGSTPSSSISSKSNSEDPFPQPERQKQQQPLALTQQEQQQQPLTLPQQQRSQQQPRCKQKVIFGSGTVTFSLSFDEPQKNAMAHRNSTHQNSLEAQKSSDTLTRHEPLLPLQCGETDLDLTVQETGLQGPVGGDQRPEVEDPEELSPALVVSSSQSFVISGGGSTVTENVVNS
Briefly: FLIPR Assay for Evaluating the Potency and Selectivity of Test Compounds. The assay is classed as cell-based. The settings on record: HEK 293 cells expressing CasR; 30 minutes pre-incubation; stimulation by 1.7 mM Ca2+; read 42 seconds after stimulation. The source says:
FLIPR Assay for Evaluating the Potency and Selectivity of Test Compounds
Human kidney cell (HEK 293) expressing the calcium receptor (CasR) are used to detect antagonists of the receptor using Fluorometric imaging plate reader (FLIPR, Molecular Devices, Sunnyvale Calif.). Receptor activation by extracellular calcium results in the release of calcium from intracellular stores into the cytosol. A fluorescent indicator (Fluo-4) is internalized by the cells from growth media and interacts with calcium released into the cytosol to provide a means of quantifying intracellular Ca^2+ levels and receptor agonism/antagonism. Fluorescence intensity is detected by the FLIPR CCD camera and traced as a function of time. Potential antagonists are identified by their ability to decrease this fluorescent response.
Prior to the addition of test compound cells are washed with a 10 mM HEPES buffer solution. The test compound, for example the compound of Example 1, is added at various doses (from 1 µM to 3 nM) and pre-incubated with cells for 30 minutes followed by stimulation of the CasR by the addition of 1.7 mM Ca^2+. IC50 values are based on the ability of the cells to inhibit the Ca^2+ induced increase in intracellular Ca^2+. Fluorescence signal is read 42 seconds after the stimulation of the CasR by the addition of 1.7 mM Ca^2+.
The following table provides FLIPR IC50 data for the specified Examples. The IC50s are reported as micromolar concentration with n being the number of times the particular compound was assayed.

On to `CC(Cc1ccccc1F)n1c(-c2ncccc2O)nc2ccnc(C(F)(F)F)c2c1=O` (racemic) [Example 6, (R, S)-2-(3-Hydroxy-pyridin-2-yl)-3-(1-methyl-2-(2-fluorophenyl)ethyl)-5-trifluoromethyl-3H-pyrido[4,3-d]pyrimidin-4-one], for which the IC50 is 50 nM.
For the compound `O=c1c2c(C(F)(F)F)nccc2nc(-c2ncccc2O)n1CCC1CCCCO1` (racemic) [Example 49, (R, S)-2-(3-hydroxypyridin-2-yl)-3-(2-(tetrahydro-2H-pyran-2-yl)ethyl)-5-(trifluoromethyl)pyrido[4,3-d]pyrimidin-4(3H)-one], the concentration for half-maximal inhibition (IC50) turned out to be 480 nM.
With `CC(Cc1ccccc1F)n1c(-c2ncccc2O)nc2ccnc(C(F)(F)F)c2c1=O` (single isomer, unassigned) [Example 6a, 2-(3-Hydroxy-pyridin-2-yl)-3-(1-methyl-2-(2-fluorophenyl)ethyl)-5-trifluoromethyl-3H-pyrido[4,3-d]pyrimidin-4-one] the figure was 50 nM; with `CC(Cc1ccccc1F)n1c(-c2ncccc2O)nc2ccnc(C(F)(F)F)c2c1=O` (single isomer, unassigned) [Example 6b, 2-(3-Hydroxy-pyridin-2-yl)-3-(1-methyl-2-(2-fluorophenyl)ethyl)-5-trifluoromethyl-3H-pyrido[4,3-d]pyrimidin-4-one], 1400 nM.
For `O=c1c2c(C(F)(F)F)nccc2nc(-c2ccccc2O)n1CCc1ccccc1` [Example 1, 2-(2-Hydroxy-phenyl)-3-phenethyl-5-trifluoromethyl-3H-pyrido[4,3-d]pyri-midin-4-one] the value was 50 nM; for `O=c1c2c(C(F)(F)F)nccc2nc(-c2cccc(F)c2O)n1CCc1ccccc1` [Example 2, 2-(3-Fluoro-2-hydroxy-phenyl)-3-phenethyl-5-trifluoromethyl-3H-pyrido[4,3-d]pyrimidin-4-one], 620 nM; for `O=c1c2c(C(F)(F)F)nccc2nc(-c2ncccc2O)n1CCc1ccccc1` [Example 3, 2-(3-Hydroxy-pyridin-2-yl)-3-phenethyl-5-trifluoromethyl-3H-pyrido[4,3-d]pyrimidin-4-one], 390 nM.
For `C[C@H](Cc1ccccc1)n1c(-c2ccccc2O)nc2ccnc(C(F)(F)F)c2c1=O` [Example 4a, (R)-2-(2-Hydroxy-phenyl)-3-(1-methyl-2-phenyl-ethyl)-5-trifluoromethyl-3H-pyrido[4,3-d]pyrimidin-4-one] the value was 60 nM.
With `C[C@@H](Cc1ccccc1)n1c(-c2ccccc2O)nc2ccnc(C(F)(F)F)c2c1=O` [Example 4b, (S)-2-(2-Hydroxy-phenyl)-3-(1-methyl-2-phenyl-ethyl)-5-trifluoromethyl-3H-pyrido[4,3-d]pyrimidin-4-one], the IC50 was 160 nM.
With `C[C@H](Cc1ccccc1)n1c(-c2ncccc2O)nc2ccnc(C(F)(F)F)c2c1=O` [Example 5, (R)-2-(3-Hydroxy-pyridin-2-yl)-3-(1-methyl-2-phenyl-ethyl)-5-trifluoromethyl-3H-pyrido[4,3-d]pyrimidin-4-one] the figure was 20 nM.
For `O=c1c2c(C(F)(F)F)nccc2nc(-c2ccccc2O)n1CCc1ccccc1F` [Example 7] the value was 130 nM.
For `O=c1c2c(C(F)(F)F)nccc2nc(-c2ccccc2O)n1CCc1cccc(F)c1` [Example 8] the value was 90 nM; for `O=c1c2c(C(F)(F)F)nccc2nc(-c2cccc(F)c2O)n1CCc1ccccc1F` [Example 9, 2-(3-Fluoro-2-hydroxy-phenyl)-3-[2-(2-fluoro-phenyl)-ethyl]-5-trifluoromethyl-3H-pyrido[4,3-d]pyrimidin-4-one], 290 nM; for `Cc1cc2nc(-c3ccccc3O)n(CCc3ccccc3)c(=O)c2c(C(F)(F)F)n1` [Example 10, 2-(2-Hydroxy-phenyl)-7-methyl-3-(phenyl-ethyl)-5-trifluoromethyl-3H-pyrido[4,3-d]pyrimidin-4-one], 120 nM.
In the case of `O=c1c2c(C(F)(F)F)nccc2nc(-c2cccc(F)c2O)n1CCc1cccc(F)c1` [Example 11, 2-(3-Fluoro-2-hydroxy-phenyl)-3-[2-(3-fluoro-phenyl)-ethyl]-5-trifluoromethyl-3H-pyrido[4,3-d]pyrimidin-4-one], the IC50 was 460 nM.
For `O=c1c2c(C(F)(F)F)nccc2nc(-c2ncccc2O)n1CCc1ccccc1F` [Example 12, 3-[2-(2-Fluoro-phenyl)-ethyl-]2-(3-hydroxy-pyridin-2-yl)-5-trifluoromethyl-3H-pyrido[4,3-d]pyrimidin-4-one] the value was 250 nM.
For `O=c1c2c(C(F)(F)F)nccc2nc(-c2ncccc2O)n1CCc1ccc(F)c(F)c1` [Example 13, 3-[2-(3,4-Difluoro-phenyl)-ethyl]-2-(3-hydroxy-pyridin-2-yl)-5-trifluoromethyl-3H-pyrido[4,3-d]pyrimidin-4-one] the value was 70 nM; for `O=c1c2c(C(F)(F)F)nccc2nc(-c2ncccc2O)n1CCc1ccc(F)cc1F` [Example 14, 3-[2-(2,4-Difluoro-phenyl)-ethyl]-2-(3-hydroxy-pyridin-2-yl)-5-trifluoromethyl-3H-pyrido[4,3-d]pyrimidin-4-one], 170 nM.
With `O=c1c2c(C(F)(F)F)nccc2nc(-c2ccccc2O)n1CCc1ccc(F)c(F)c1` [Example 15] the figure was 160 nM; with `CNc1nccc2nc(-c3ccccc3O)n(CCc3ccccc3)c(=O)c12` [Example 16, 2-(2-Hydroxy-phenyl)-5-methylamino-3-phenethyl-3H-pyrido[4,3-d]pyrimidin-4-one], 10800 nM; with `CC(C)Nc1nccc2nc(-c3ccccc3O)n(CCc3ccccc3)c(=O)c12` [Example 17, 2-(2-Hydroxy-phenyl)-5-isopropylamino-3-phenethyl-3H-pyrido[4,3-d]pyrimidin-4-one], 11000 nM.
Regarding `O=c1c2c(N3CCCC3)nccc2nc(-c2ccccc2O)n1CCc1ccccc1` [Example 18, 2-(2-Hydroxy-phenyl)-3-phenethyl-5-pyrrolidin-1-yl-3H-pyrido[4,3-d]pyrimidin-4-one], the IC50 is 12300 nM.
Regarding `CN1CCN(c2nccc3nc(-c4ccccc4O)n(CCc4ccccc4)c(=O)c23)CC1` [Example 19, 2-(2-Hydroxy-phenyl)-5-(4-methyl-piperazin-1-yl)-3-phenethyl-3H-pyrido[4,3-d]pyrimidin-4-one], the IC50 was > 100000 nM.
For `O=c1c2c(N3CCNCC3)nccc2nc(-c2ccccc2O)n1CCc1ccccc1` [Example 20, 2-(2-Hydroxy-phenyl)-3-phenethyl-5-piperazin-1-yl-3H-pyrido[4,3-d]pyrimidin-4-one] the value was > 100000 nM; for `CN(C)c1nccc2nc(-c3ccccc3O)n(CCc3ccccc3)c(=O)c12` [Example 21, 5-Dimethylamino-2-(2-hydroxy-phenyl)-3-phenethyl-3H-pyrido[4,3-d]pyrimidin-4-one], 13800 nM.
Consider `O=c1c2c(N3CCOCC3)nccc2nc(-c2ccccc2O)n1CCc1ccccc1` [Example 22, 2-(2-Hydroxy-phenyl)-5-morpholin-4-yl-3-phenethyl-3H-pyrido[4,3-d]pyrimidin-4-one], for which the IC50 is > 100000 nM.
In the case of `O=c1c2c(N3CCC3)nccc2nc(-c2ccccc2O)n1CCc1ccccc1` [Example 23, 5-Azetidin-1-yl-2-(2-hydroxy-phenyl)-3-phenethyl-3H-pyrido[4,3-]d-pyrimidin-4-one], the IC50 stood at 13700 nM.

For orientation: IC50 means the midpoint of a concentration-inhibition curve.
